The assay has as its system ISO50 (Isolation number 50) colorectal cancer organoids. Briefly: Drug titration assay on colorectal cancer organoids cultured in a fed-plate bioreactor (confocal imaging, morphometric analysis). It counts as cell-based. The following applies: 5 days. On the procedure:
ISO50 (Isolation number 50) colorectal cancer organoids were cultured in a fed-plate bioreactor for 3 days, recovered from the MATRIGEL™ and stored frozen at −80° C. They were subsequently revived and used to seed a 384-well plate at a density of 350 organoids per well in 12 μl MATRIGEL™. The organoids were fed with 25 μl growth medium containing 0-2.5 μM MK1775, a WEE1 inhibitor (8 replicates). After 5 days, the organoids were fixed and stained with Hoechst (blue fluorescent stain specific for DNA i.e. nuclei of eukaryotic cells) and phalloidin (pink stain for F-actin). […] The actin filaments are spread throughout the structures, but are more concentrated in the lumen, in the centre of the organoid. Representative organoids are pictured from selected wells at each concentration. The overall shape of organoids in an untreated culture, or at low concentrations of inhibitor, can vary from round and cyst-like to convoluted and branched. […] Morphometric analysis of over 1000 parameters of the organoids confirmed the observations of toxicity.

“Also recorded” adds a separate entry of the source.

As for `C=CCn1c(=O)c2cnc(Nc3ccc(N4CCN(C)CC4)cc3)nc2n1-c1cccc(C(C)(C)O)n1` [MK1775], the “Organoid morphology (confocal imaging, Hoechst and phalloidin staining)” value (0-2.5 μM in growth medium, 384-well plate, 350 organoids per well, 8 replicates, FIG. 3A) is “cells are shed from the outer layer of the organoid, leading to a loss in complexity and a decrease in the overall size; also recorded: cells are shed from the outer layer of the organoid, leading to a loss of complexity and a decrease in the overall size”. Further, where the note is “0-2.5 μM, FIG. 3B”, the “Apoptotic nuclei (morphometric analysis)” value was “increase with drug concentration”, the “Nuclei roundness (due to swelling before apoptosis; morphometric analysis)” value is reported as “increase with drug concentration” and the “Organoid size (morphometric analysis)” value was “decreases with increasing concentrations of inhibitor”.

The record behind these values is patent publication US20250368952A1, “Methods for Culturing Organoids” (Cellesce Limited, priority 2016, published 2025).
